# Laboratory results: patent US20020111274A1, “1-alkyl-3-[1-(substituted phenyl) benzotriazol-6-yl] uracils” (BASF Aktiengesellschaft, priority 2000, published 2002)
# How the values were obtained:
# Design in all cases: scale not given here
# ECHOG Barnyardgrass [1] = assay: Preemergence herbicidal evaluation, ECHOG; format: in vivo, Echinochloa crus-galli, (L.) Beau; settings: preemergence
# How it was run: (§1)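 Seeds mixed with potting soil were planted on about one inch of soil in cups, then sprayed with the test compound in aqueous acetone at roughly 0.013 to 0.800 kg per hectare. Plants were kept under standard greenhouse care and injury was rated four to five weeks after treatment.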
# CASOB Sicklepod [2] = assay: Postemergence herbicidal evaluation, CASOB; format: in vivo, Cassia obtusifolia, L.; settings: postemergence spray, rated about two-three weeks after treatment
# How it was run: (§2)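 Seedlings grown about two weeks were sprayed with compound in 80/20 acetone/water containing 1.0% methylated seed oil, at the equivalent of about 0.006 to 0.400 kg/ha, through a nozzle at 40 psi. Plants were kept in the greenhouse and rated visually about two to three weeks after treatment.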
# CASOB Sicklepod [3] = assay: Preemergence herbicidal evaluation, CASOB; format: in vivo, Cassia obtusifolia, L.; settings: preemergence
# How it was run: as §1
# [4] = tested on: CHEAL Lambsquarters, Common; assay: Preemergence herbicidal evaluation, CHEAL; format: in vivo, Chenopodium album, L.; settings: preemergence
# How it was run: as §1
# [5] = tested on: TRZAWR Wheat, Winter, cv Riband; assay: Postemergence herbicidal evaluation, TRZAWR; format: in vivo, Triticum aestivum; settings: postemergence spray, rated about two-three weeks after treatment
# How it was run: as §2
# SETVI Foxtail, Green [6] = assay: Preemergence herbicidal evaluation, SETVI; format: in vivo, Setaria viridis, (L.) Beau; settings: preemergence
# How it was run: as §1
# ECHOG Barnyardgrass [7] = assay: Postemergence herbicidal evaluation, ECHOG; format: in vivo, Echinochloa crus-galli, (L.) Beau; settings: postemergence spray, rated about two-three weeks after treatment
# How it was run: as §2
# SETVI Foxtail, Green [8] = assay: Postemergence herbicidal evaluation, SETVI; format: in vivo, Setaria viridis, (L.) Beau; settings: postemergence spray, rated about two-three weeks after treatment
# How it was run: as §2
# ABUTH Velvetleaf = assay: Postemergence herbicidal evaluation, ABUTH; format: in vivo, Abutilon theophrasti, Medic.; settings: postemergence spray, rated about two-three weeks after treatment
# How it was run: as §2
# GALAP Galium = assay: Postemergence herbicidal evaluation, GALAP; format: in vivo, Galium aparine; settings: postemergence spray, rated about two-three weeks after treatment
# How it was run: as §2
# [9] = tested on: CHEAL Lambsquarters, Common; assay: Postemergence herbicidal evaluation, CHEAL; format: in vivo, Chenopodium album, L.; settings: postemergence spray, rated about two-three weeks after treatment
# How it was run: as §2
# [10] = tested on: TRZAWR Wheat, Winter, cv Riband; assay: Preemergence herbicidal evaluation, TRZAWR; format: in vivo, Triticum aestivum; settings: preemergence
# How it was run: as §1
smiles,measurement,setting,value
Cc1cc(O)ccc1-n1nnc2cc(F)c(-n3c(=O)cc(C(F)(F)F)n(C)c3=O)cc21 [Example 33],ECHCG herbicidal rating,ECHOG Barnyardgrass [1]; rate 0.016 kg/ha,0.0
same,ECHCG herbicidal rating,ECHOG Barnyardgrass [1]; rate 0.032 kg/ha,0.0
same,ECHCG herbicidal rating,ECHOG Barnyardgrass [1]; rate 0.062 kg/ha,0.0
same,ECHCG herbicidal rating,ECHOG Barnyardgrass [1]; rate 0.125 kg/ha,0.0
same,Postemergence herbicidal rating CASOB,CASOB Sicklepod [2]; 0.008 kg/ha,0.0
same,Postemergence herbicidal rating CASOB,CASOB Sicklepod [2]; 0.016 kg/ha,0.0
same,Postemergence herbicidal rating CASOB,CASOB Sicklepod [2]; 0.032 kg/ha,0.0
same,Postemergence herbicidal rating CASOB,CASOB Sicklepod [2]; 0.062 kg/ha,0.0
same,CASOB herbicidal rating,CASOB Sicklepod [3]; rate 0.016 kg/ha,0.0
same,CASOB herbicidal rating,CASOB Sicklepod [3]; rate 0.032 kg/ha,0.0
same,CASOB herbicidal rating,CASOB Sicklepod [3]; rate 0.062 kg/ha,0.0
same,CASOB herbicidal rating,CASOB Sicklepod [3]; rate 0.125 kg/ha,0.0
same,CHEAL herbicidal rating,[4]; rate 0.016 kg/ha,9.0
same,CHEAL herbicidal rating,[4]; rate 0.032 kg/ha,9.0
same,CHEAL herbicidal rating,[4]; rate 0.062 kg/ha,9.0
same,CHEAL herbicidal rating,[4]; rate 0.125 kg/ha,9.0
same,Postemergence herbicidal rating TRZAWR,[5]; 0.008 kg/ha,0.5
same,Postemergence herbicidal rating TRZAWR,[5]; 0.016 kg/ha,1.0
same,Postemergence herbicidal rating TRZAWR,[5]; 0.032 kg/ha,2.0
same,Postemergence herbicidal rating TRZAWR,[5]; 0.062 kg/ha,2.5
same,SETVI herbicidal rating,"SETVI Foxtail, Green [6]; rate 0.016 kg/ha",0.0
same,SETVI herbicidal rating,"SETVI Foxtail, Green [6]; rate 0.032 kg/ha",0.0
same,SETVI herbicidal rating,"SETVI Foxtail, Green [6]; rate 0.062 kg/ha",0.0
same,SETVI herbicidal rating,"SETVI Foxtail, Green [6]; rate 0.125 kg/ha",0.0
same,Postemergence herbicidal rating ECHCG,ECHOG Barnyardgrass [7]; 0.008 kg/ha,0.0
same,Postemergence herbicidal rating ECHCG,ECHOG Barnyardgrass [7]; 0.016 kg/ha,0.0
same,Postemergence herbicidal rating ECHCG,ECHOG Barnyardgrass [7]; 0.032 kg/ha,0.0
same,Postemergence herbicidal rating ECHCG,ECHOG Barnyardgrass [7]; 0.062 kg/ha,0.0
same,Postemergence herbicidal rating SETVI,"SETVI Foxtail, Green [8]; 0.008 kg/ha",0.0
same,Postemergence herbicidal rating SETVI,"SETVI Foxtail, Green [8]; 0.016 kg/ha",0.0
same,Postemergence herbicidal rating SETVI,"SETVI Foxtail, Green [8]; 0.032 kg/ha",0.0
same,Postemergence herbicidal rating SETVI,"SETVI Foxtail, Green [8]; 0.062 kg/ha",0.0
same,Postemergence herbicidal rating ABUTH,ABUTH Velvetleaf; 0.008 kg/ha,0.0
same,Postemergence herbicidal rating ABUTH,ABUTH Velvetleaf; 0.016 kg/ha,3.0
same,Postemergence herbicidal rating ABUTH,ABUTH Velvetleaf; 0.032 kg/ha,3.0
same,Postemergence herbicidal rating ABUTH,ABUTH Velvetleaf; 0.062 kg/ha,5.0
same,Postemergence herbicidal rating GALAP,GALAP Galium; 0.008 kg/ha,0.0
same,Postemergence herbicidal rating GALAP,GALAP Galium; 0.016 kg/ha,0.0
same,Postemergence herbicidal rating GALAP,GALAP Galium; 0.032 kg/ha,0.0
same,Postemergence herbicidal rating GALAP,GALAP Galium; 0.062 kg/ha,0.0
same,Postemergence herbicidal rating CHEAL,[9]; 0.008 kg/ha,0.0
same,Postemergence herbicidal rating CHEAL,[9]; 0.016 kg/ha,0.0
same,Postemergence herbicidal rating CHEAL,[9]; 0.032 kg/ha,0.0
same,Postemergence herbicidal rating CHEAL,[9]; 0.062 kg/ha,2.0
same,TRZAWR herbicidal rating,[10]; rate 0.016 kg/ha,0.0
same,TRZAWR herbicidal rating,[10]; rate 0.032 kg/ha,0.0
same,TRZAWR herbicidal rating,[10]; rate 0.062 kg/ha,0.0
same,TRZAWR herbicidal rating,[10]; rate 0.125 kg/ha,0.0
